Reference: patent publication US20130011378A1, “Stable formulations of a hyaluronan-degrading enzyme” (priority 2011, published 2013)
Residues, ends and D or L forms follow the SMILES beside them.

Tests used:
[1] = Non-denaturing SEC: percent main peak / aggregates of insulin and rHuPH20; format: physicochemical
Description: Reference samples were stored in HPLC vials at 10° C. prior to use.
Samples were stored in HPLC vials at 10° C. prior to use, for up to 3 days.
0.5× Phosphate Buffered Saline (PBS) solution was prepared by diluting 10×PBS with HPLC grade water.
Insulin percent purity was expressed as percentage of the insulin main peak versus the total insulin peaks. The target specification is less than 2% high molecular weight protein, i.e., insulin aggregates.
SEC was performed using the following conditions: 1× Phosphate Buffered Saline (PBS), a Toso BioScience G2000 SWXL column, and a flow rate set at 1 mL/min. Data were collected as described above and means were reported and entered into the design table following the sample sequence provided by the DOE software.

rHuPH20 = target: T1, rHuPH20 (Homo sapiens, UniProt P38567); assay: Determination of hyaluronidase activity of rHuPH20, turbidimetric assay (Example 2, variant not specified); format: biochemical; conditions: for Effect on rHuPH20 enzymatic activity: stabilizer screening in rHuPH20/insulin formulation, semi-quantitative in comparison with NaCl, samples incubated at 30° C. for about one week
T1 construct: made in house; host or cells: CHO cells (DG44 CHO, HZ24 plasmid, clone 2B2)
T1 sequence (P38567 36-482): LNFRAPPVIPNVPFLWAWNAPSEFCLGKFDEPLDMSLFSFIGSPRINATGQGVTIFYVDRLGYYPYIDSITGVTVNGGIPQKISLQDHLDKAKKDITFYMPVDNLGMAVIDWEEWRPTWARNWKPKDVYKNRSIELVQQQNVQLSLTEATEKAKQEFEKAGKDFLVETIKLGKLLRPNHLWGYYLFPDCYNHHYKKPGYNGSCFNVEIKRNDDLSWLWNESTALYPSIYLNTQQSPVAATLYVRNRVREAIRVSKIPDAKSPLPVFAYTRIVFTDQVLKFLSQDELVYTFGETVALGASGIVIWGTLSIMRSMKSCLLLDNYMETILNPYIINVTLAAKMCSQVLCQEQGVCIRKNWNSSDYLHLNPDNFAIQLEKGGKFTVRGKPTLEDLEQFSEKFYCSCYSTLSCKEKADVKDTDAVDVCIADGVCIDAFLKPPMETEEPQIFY

[2] = RP-HPLC: insulin apparent solubility / percent recovery; conditions: stabilizer screening in rHuPH20/insulin formulation, semi-quantitative in comparison with NaCl; RP-HPLC, samples stored at 5° C.
Description: Apparent solubility was measured as the percent insulin recovery as compared to the initial formulations/conditions.
Samples were prepared by withdrawing 100 μL from each vial at every time point and centrifuging prior to loading. Samples were stored in an autosampler at 4° C. prior to use, and were considered stable for 3 days after preparation. All samples were tested in duplicate.
For insulin, 20 μL was injected for each HPLC run.
To determine the apparent solubility, the peak area of insulin/insulin analog main peak and desamido peak were integrated and combined together to calculate the percentage relative to the standards. […] The data were processed using Design-Expert® 7.0 (StatEase) and the “historical data” feature. Insulin percent purity was expressed as the percent of main insulin versus all insulin species.

[3] = 35° C., Table 22 concentrations
[4] = 48 hours, 4° C., preservative levels of Table 22, in U/mL
[5] = t = 0, 100 μg/mL rHuPH20, pH 7.3, 140 mM NaCl, 0.01% polysorbate 80, preservative levels of Table 21, in U/mL

Compound: N[C@@H](Cc1ccccc1)C(=O)O [L-Phenylalanine]
- % Main rHuPH20 peak by non-denaturing SEC ([1]; 4° C., 1 day): 98.27%
- % Main rHuPH20 peak by non-denaturing SEC ([1]; 4° C., Table 22 concentrations): 100.00%
- % Main rHuPH20 peak by non-denaturing SEC ([1]; 35° C., 1 day): 98.86%
- % Main rHuPH20 peak by non-denaturing SEC [1, 3]: 99.80%
- rHuPH20 activity (rHuPH20; 24 hours, 25° C., in U/mL): 12100
- rHuPH20 activity (rHuPH20; [4]): 12,540
- rHuPH20 activity (rHuPH20; 48 hours, 35° C., preservative levels of Table 22, in U/mL): 13,130
- rHuPH20 activity (rHuPH20; 5 days, 25° C., in U/mL): 11460
- rHuPH20 activity (rHuPH20; 6 days, 35° C., in U/mL): 10660
- rHuPH20 activity (rHuPH20; [5]): 13,420

Compound: O[C@H]1[C@H](O)[C@@H](O)[C@H](O)[C@@H](O)[C@H]1O [Inositol]
- Effect on rHuPH20 enzymatic activity (rHuPH20): No effect

Compound: O=C(O)CCCc1ccccc1 [Phenyl butyric acid]
- Effect on rHuPH20 enzymatic activity (rHuPH20): No effect

Compound: OC[C@@H](O)[C@@H](O)[C@H](O)[C@H](O)CO [Mannitol]
- Effect on rHuPH20 enzymatic activity (rHuPH20): No effect

Compound: O=C([O-])c1ccccc1.[Na+] [Sodium Benzoate]
- Effect on rHuPH20 enzymatic activity (rHuPH20): No effect

Compound: NCCCC[C@H](N)C(=O)O [Lysine]
- Effect on insulin solubility [2]: No effect
- Effect on rHuPH20 enzymatic activity (rHuPH20): No effect

Compound: Benzalkonium Chloride
- % Main rHuPH20 peak by non-denaturing SEC ([1]; 4° C., 1 day): 99.64%
- % Main rHuPH20 peak by non-denaturing SEC ([1]; 35° C., 1 day): <LOD
- rHuPH20 activity (rHuPH20; 24 hours, 25° C., in U/mL): 10750
- rHuPH20 activity (rHuPH20; 5 days, 25° C., in U/mL): 2710
- rHuPH20 activity (rHuPH20; 6 days, 35° C.): <LOQ
- rHuPH20 activity (rHuPH20; [5]): 11,740

Compound: OC[C@H]1O[C@@](CO)(O[C@H]2O[C@H](CO)[C@@H](O)[C@H](O)[C@H]2O)[C@@H](O)[C@@H]1O [Sucrose]
- Effect on rHuPH20 enzymatic activity (rHuPH20): No effect

Compound: OCCCCCl [4-Chloro-1-butanol]
- % Main rHuPH20 peak by non-denaturing SEC ([1]; 4° C., 1 day): 97.89%
- % Main rHuPH20 peak by non-denaturing SEC ([1]; 35° C., 1 day): <LOD
- rHuPH20 activity (rHuPH20; 24 hours, 25° C., in U/mL): 3500
- rHuPH20 activity (rHuPH20; 5 days, 25° C., in U/mL): 1440
- rHuPH20 activity (rHuPH20; 6 days, 35° C.): <LOQ
- rHuPH20 activity (rHuPH20; [5]): 11,350

Compound: NCC(=O)NCC(=O)O [Gly-Gly] (H-Gly-Gly-OH)
- Effect on rHuPH20 enzymatic activity (rHuPH20): No effect

Compound: C[N+](C)(C)[O-] [Trimethylamine oxide (TMAO)]
- Effect on insulin solubility [2]: No effect
- Effect on rHuPH20 enzymatic activity (rHuPH20): No effect

Compound: Cc1cccc(O)c1 [m-cresol]
- % Main rHuPH20 peak by non-denaturing SEC ([1]; 4° C., Table 22 concentrations): 100.00%
- % Main rHuPH20 peak by non-denaturing SEC [1, 3]: 0.834%
- rHuPH20 activity (rHuPH20; [4]): 10,950
- rHuPH20 activity (rHuPH20; 48 hours, 35° C., preservative levels of Table 22): <LOQ
- Enzymatic Activity of rHuPH20 (rHuPH20; preservative 0.05%, 1 Month, 25° C., insulin/rHuPH20 formulation pH 7.1, 140 mM NaCl): 2103 U/mL
- Enzymatic Activity of rHuPH20 (rHuPH20; preservative 0.05%, 1 Week, 35° C.): 2019 U/mL
- Enzymatic Activity of rHuPH20 (rHuPH20; preservative 0.05%, 2 Weeks, 35° C.): 1955 U/mL
- Enzymatic Activity of rHuPH20 (rHuPH20; preservative 0.1%, 1 Month, 25° C.): 2188 U/mL
- Enzymatic Activity of rHuPH20 (rHuPH20; preservative 0.1%, 1 Week, 35° C.): 2147 U/mL
- Enzymatic Activity of rHuPH20 (rHuPH20; preservative 0.1%, 2 Weeks, 35° C.): 2069 U/mL
- Enzymatic Activity of rHuPH20 (rHuPH20; preservative 0.2%, 1 Month, 25° C.): 2013 U/mL
- Enzymatic Activity of rHuPH20 (rHuPH20; preservative 0.2%, 1 Week, 35° C.): 466 U/mL
- Enzymatic Activity of rHuPH20 (rHuPH20; preservative 0.2%, 2 Weeks, 35° C.): 185 U/mL
- Enzymatic Activity of rHuPH20 (rHuPH20; preservative 0.4%, 1 Month, 25° C.): <LOD
- Enzymatic Activity of rHuPH20 (rHuPH20; preservative 0.4%, 1 Week, 35° C.): <LOD
- Enzymatic Activity of rHuPH20 (rHuPH20; preservative 0.4%, 2 Weeks, 35° C.): <LOD
